{"source": "paper PMC9385959", "about": "“Mammalian derived lipocalin and secretoglobin respiratory allergens strongly bind ligands with potentially immune modulating properties” (Frontiers in Allergy, 2022)", "key": {"[1]": {"target": "Cav p 1.0101 (Cavia porcellus, UniProt A0A484HM70, S19A)", "sequence (A0A484HM70 entry or part of it S19A)": "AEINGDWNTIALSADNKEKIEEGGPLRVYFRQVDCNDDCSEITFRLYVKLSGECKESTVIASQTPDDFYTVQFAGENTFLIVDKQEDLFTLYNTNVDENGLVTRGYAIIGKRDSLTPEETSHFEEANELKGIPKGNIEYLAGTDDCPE", "assay": "Competitive fluorescence-quenching assay, Cav p 1.0101", "type": "binding, guinea pig", "procedure": "(§1) Fluorescence quenching assays were performed as previously described ([45]), with modifications. Fluorochromes and ligands were purchased from Sigma Aldrich (Steinheim, Germany), Carl Roth (Karlsruhe, Germany) and TCI Europe N.V. (Zwijndrecht, Belgium).\n(§2) Stock solutions were prepared at a concentration of 10 mM in 100% ethanol for the fluorochromes 1-aminoanthracene (1-AMA), 8-anilino-1-naphthalensulfonic acid (1,8-ANS) and for all ligands, and in 100% methanol for n-phenyl-1-naphthylamine (1-NPN), respectively. Iron catecholate ligands (siderophores) were prepared as previously described ([46]). Fluorochrome-protein complexes were analyzed at an equimolar concentration of 5 μM in PBS with 5% ethanol in a volume of 100 μL per well in black 96-well non-binding microplates (Greiner Bio-One GmbH, Frickenhausen, Germany). Solutions containing only protein or the respective fluorescent probe in PBS with 5% ethanol served as controls. Fluorochrome-protein complexes were incubated with orbital shaking for 10 min at 500 rpm at room temperature (RT) before measurement using the fluorescence reader TECAN Infinite 200 Pro (Tecan Trading AG, Switzerland). Excitation wavelengths were fixed at 380 nm for 1-AMA and 1,8-ANS, and 337 nm for 1-NPN. Fluorescence emission spectra were recorded in 5 nm steps between 420 and 560 nm for 1-AMA and 1,8-ANS and between 380 and 500 nm for 1-NPN. The establishment of fluorescent quenching assay parameters for each allergen is explained in the results Section Fluorescence-quenching assay set up. Binding affinities were analyzed by non-linear regression in GraphPad Prism Version 9.3.1 (GraphPad Software, LLC). For the ligand competition assays, ligands were added to fluorochrome-allergen complexes with a final buffer composition of 5% ethanol in PBS in a volume of 100 μL and incubated for 30 min at 500 rpm at RT and further equilibrated for another 30 min without shaking before fluorescence measurement.\n(§3) The binding affinities of non-fluorescent ligands is inferred to by their ability to compete and displace the fluorochromes bound to the allergen at a certain concentration. This leads to a measurable decrease in fluorescence intensity that will be expressed as fluorescence inhibition (Figure 6). For a given allergen, the ligand with the strongest inhibition has the highest binding affinity. […] Competitive ligand binding was analyzed by non-linear regression and inhibitory dissociation constants (Ki) were calculated."}, "[2]": {"target": "T1, human LCN1 (Homo sapiens, UniProt P31025)", "T1 construct": "made in house; host or cells: E. coli Rosetta-gami 2(DE3)", "T1 sequence (P31025 19-176)": "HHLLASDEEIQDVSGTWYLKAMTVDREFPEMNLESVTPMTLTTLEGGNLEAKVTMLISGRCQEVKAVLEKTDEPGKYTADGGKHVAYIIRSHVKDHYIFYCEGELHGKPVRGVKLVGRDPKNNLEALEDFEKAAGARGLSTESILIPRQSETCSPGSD", "assay": "Competitive fluorescence-quenching assay, LCN1", "type": "binding", "conditions": "for inhibition at 50 µM: 5 μM LCN1-1,8-ANS complex, 50 μM ligand, n = 2", "procedure": "as §1, §2, §3"}, "[3]": {"target": "Ory c 2", "assay": "Competitive fluorescence-quenching assay, Ory c 2", "type": "binding, rabbit", "procedure": "as §1, §2, §3"}, "[4]": {"target": "T2, Can f 1 (Canis lupus familiaris, UniProt O18873)", "T2 construct": "made in house; host or cells: E. coli Rosetta-gami 2(DE3)", "T2 sequence (O18873 19-174)": "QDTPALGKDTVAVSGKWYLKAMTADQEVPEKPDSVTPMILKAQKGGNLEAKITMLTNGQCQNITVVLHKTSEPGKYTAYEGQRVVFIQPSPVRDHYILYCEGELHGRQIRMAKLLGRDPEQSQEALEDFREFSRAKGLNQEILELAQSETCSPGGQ", "assay": "Competitive fluorescence-quenching assay, Can f 1", "type": "binding, dog", "conditions": "for inhibition at 50 µM: read-out: Mean fluorescence inhibition", "procedure": "as §1, §2, §3"}, "[5]": {"target": "Ory c 3 (Oryctolagus cuniculus, UniProt Q9GK63+Q9GK67)", "sequence (Q9GK67 entry or part of it)": "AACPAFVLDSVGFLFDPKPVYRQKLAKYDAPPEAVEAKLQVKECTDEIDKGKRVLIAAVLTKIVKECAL", "sequence (Q9GK63 entry or part of it)": "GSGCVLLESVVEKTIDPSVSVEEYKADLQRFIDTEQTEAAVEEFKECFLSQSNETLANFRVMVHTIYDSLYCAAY", "assay": "Competitive fluorescence-quenching assay, Ory c 3", "type": "binding, rabbit", "conditions": "5 μM Ory c 3-1-AMA complex, 50 μM ligand, n = 2; read-out: Mean fluorescence inhibition", "procedure": "as §1, §2, §3"}, "[6]": {"target": "Cav p 1.0201 (Cavia porcellus, UniProt A0A484HRI4)", "sequence (A0A484HRI4 entry or part of it)": "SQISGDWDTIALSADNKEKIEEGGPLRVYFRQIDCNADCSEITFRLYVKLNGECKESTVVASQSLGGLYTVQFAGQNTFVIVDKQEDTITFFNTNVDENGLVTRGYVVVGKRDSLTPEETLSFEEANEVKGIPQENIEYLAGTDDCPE", "assay": "Competitive fluorescence-quenching assay, Cav p 1.0201", "type": "binding, guinea pig", "procedure": "as §1, §2, §3"}, "[7]": {"target": "T3, Fel d 1 (Felis catus, UniProt P30438+P30440)", "T3 construct": "polyhistidine tag (C); made in house; host or cells: E. coli Rosetta-gami 2", "T3 sequence (P30438+P30440 with tags, fused parts or gaps)": "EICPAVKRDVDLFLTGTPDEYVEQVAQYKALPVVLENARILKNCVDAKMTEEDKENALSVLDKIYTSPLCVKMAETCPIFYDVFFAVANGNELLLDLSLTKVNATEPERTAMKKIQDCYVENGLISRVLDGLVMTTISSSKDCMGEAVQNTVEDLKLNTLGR", "assay": "Competitive fluorescence-quenching assay, Fel d 1", "type": "binding, cat", "conditions": "5 μM Fel d 1 + 1,8-ANS complex, 100 μM ligand; read-out: Mean fluorescence inhibition", "procedure": "as §1, §2, §3"}, "[8]": {"target": "T4, Fel d 4 (Felis catus, UniProt Q5VFH6)", "T4 construct": "polyhistidine tag (C); made in house; host or cells: E. coli Rosetta-gami 2", "T4 sequence (Q5VFH6 16-186)": "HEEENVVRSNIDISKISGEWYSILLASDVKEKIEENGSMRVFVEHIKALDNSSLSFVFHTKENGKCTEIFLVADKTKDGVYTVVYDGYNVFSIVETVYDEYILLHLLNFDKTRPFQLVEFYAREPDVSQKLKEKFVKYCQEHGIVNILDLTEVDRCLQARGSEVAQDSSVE", "assay": "Fluorochrome binding to Fel d 4 (emission spectra and titration)", "parameters": "species or system cat", "procedure": "as §2\n(§4) We established four specific parameters for each allergen to set up a fluorescence quenching assay for screening a large array of potential ligands: (i) a compatible fluorochrome, (ii) the optimal emission wavelength to analyze the fluorescence intensities of the fluorochrome-allergen complex, (iii) the binding affinities of the fluorochrome-allergen complex (Kd values) and (iv) optimal fluorochrome concentrations (EC50 values).\n(§5) For each allergen, we identified a suitable fluorescence probe by adding equimolar concentrations of either 1-AMA or 1,8-ANS to the recombinant proteins. […] 1-AMA was chosen for the guinea pig lipocalin Cav p 1 isoallergens, rabbit lipocalin Ory c 2, and rabbit secretoglobin Ory c 3. Fluorescence intensities increased 20–60-fold upon binding. While the emission maxima shifted from 565 to 485 nm for lipocalin fluorochrome-allergen pairs, the blue shift was less pronounced for the Ory c 3 secretoglobin-1-AMA complex to 505 nm (Figure 4B). […] Respective Kd were calculated after background subtraction (Figure 4B). As ethanol gave a high background with 1-NPN, these experiments were carried out with methanol to […] the signal-to-noise-ratio.\n(§6) We evaluated the binding affinities of the fluorochromes to the allergens by dose-dependent titration curves. Increasing fluorochrome concentrations were added to a fixed protein concentration of 5 μM until saturation (Figure 5). Fluorescence intensities were recorded at specific emission maxima for each fluorochrome-allergen complex, determined using the emission spectra shown in Figure 4. We analyzed the specific binding of fluorochrome-allergen complexes by non-linear regression and calculated equilibrium dissociation constants (Kd) and EC50 values (Table 2). EC50 values are equal to fluorochome concentrations in which half of the allergen binding sites are saturated and these concentrations were used in subsequent ligand competition assays. We chose a one-site specific binding model for all allergens, except for human LCN1, where multiple binding site analysis emerged as the model of best fit and two Kd values were calculated. Evidence for internal and external binding sites for 1,8-ANS and LCN1 were already reported ([58])."}, "[9]": {"target": "T3, Fel d 1", "assay": "Fluorochrome binding to Fel d 1 (emission spectra and titration)", "parameters": "species or system cat", "procedure": "as §2, §4, §5, §6"}, "[10]": {"target": "T5, Can f 6 (Canis lupus familiaris, UniProt H2B3G5)", "T5 construct": "polyhistidine tag (C); made in house; host or cells: E. coli Rosetta-gami 2", "T5 sequence (H2B3G5 16-190)": "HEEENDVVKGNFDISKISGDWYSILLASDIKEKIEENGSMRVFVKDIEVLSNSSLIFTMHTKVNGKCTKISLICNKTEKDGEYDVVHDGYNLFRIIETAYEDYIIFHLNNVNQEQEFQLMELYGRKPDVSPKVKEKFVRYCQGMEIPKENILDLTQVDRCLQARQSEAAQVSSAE", "assay": "Fluorochrome binding to Can f 6 (emission spectra and titration)", "parameters": "species or system dog", "procedure": "as §2, §4, §5, §6"}, "[11]": {"conditions": "5 μM Can f 1-1,8-ANS complex, 50 μM ligand, n = 2"}}, "note": "Like-named read-outs stand apart in the source and are kept apart here."}
{"smiles": "CC(C)=CCC/C(C)=C/CC/C(C)=C/CO", "note": "[Farnesol, farnesol]", "values": [{"measurement": "inhibition at 50 µM", "setting": "[1]; 5 μM Cav p 1.0101-1-AMA complex, 50 μM ligand, n = 2", "result": 98.9, "unit": "%"}, {"measurement": "Ki", "setting": "[1]; Ki (printed in Figure 6D), Cav p 1.0101, titration 0–60 μM ligand, unit inferred", "result": 0.58, "unit": "µM"}, {"measurement": "Ki", "setting": "[1]; Ligand inhibition constant Ki, 5 μM Cav p 1.0101, fluorochrome 1-AMA", "result": 0.6, "unit": "µM"}, {"measurement": "inhibition at 50 µM", "setting": "[2]", "result": 90.9, "unit": "%"}, {"measurement": "Ki", "setting": "[3]; 5 μM Ory c 2, fluorochrome 1-AMA, read-out: Ligand inhibition constant Ki", "result": 1.1, "unit": "µM"}, {"measurement": "Mean fluorescence inhibition", "setting": "[3]; 5 μM Ory c 2-1-AMA complex, 50 μM ligand, n = 2", "result": 96.0, "unit": "%"}, {"measurement": "inhibition at 50 µM", "setting": "[4]; [11]", "result": 43.1, "unit": "%"}, {"measurement": "inhibition at 50 µM", "setting": "[5]", "result": 91.3, "unit": "%"}, {"measurement": "Ki", "setting": "[6]; 5 μM Cav p 1.0201, fluorochrome 1-AMA, read-out: Ligand inhibition constant Ki", "result": 0.6, "unit": "µM"}, {"measurement": "inhibition at 50 µM", "setting": "[6]; 5 μM Cav p 1.0201-1-AMA complex, 50 μM ligand, n = 2", "result": 95.5, "unit": "%"}, {"measurement": "inhibition at 100 µM", "setting": "[7]", "result": 11.2, "unit": "%"}]}
{"smiles": "CC1=C(/C=C/C(C)=C/C=C/C(C)=C/CO)C(C)(C)CCC1", "note": "[Retinol, retinol]", "values": [{"measurement": "inhibition at 50 µM", "setting": "[2]", "result": 84.3, "unit": "%"}, {"measurement": "inhibition at 50 µM", "setting": "[4]; [11]", "result": 49, "unit": "%"}]}
{"smiles": "CCCCCCCCCCCCCCC(=O)O", "note": "[Pentadecanoic acid, pentadecanoic acid]", "values": [{"measurement": "inhibition at 50 µM", "setting": "[2]", "result": 88.7, "unit": "%"}, {"measurement": "inhibition at 50 µM", "setting": "[4]", "result": 41.4, "unit": "%"}]}
{"smiles": "c1ccc(Nc2cccc3ccccc23)cc1", "note": "[1-NPN, n-phenyl-1-naphthylamine]", "values": [{"measurement": "Kd", "setting": "[8]; 5 μM Fel d 4, one-site specific binding, read-out: Fluorochrome dissociation constant Kd", "result": 81.7, "unit": "µM"}, {"measurement": "EC50", "setting": "[8]; 5 μM Fel d 4, read-out: EC50 fluorochrome concentration", "result": 28, "unit": "µM"}, {"measurement": "Increase of fluorescence intensity upon binding", "setting": "[8]; 5 μM Fel d 4 with 5 μM fluorochrome", "result": "2–3 fold"}, {"measurement": "EC50", "setting": "[9]", "result": 21.1, "unit": "µM"}, {"measurement": "Kd", "setting": "[9]", "result": 35.5, "unit": "µM"}, {"measurement": "Increase of fluorescence intensity upon binding", "setting": "[9]; 5 μM Fel d 1 with 5 μM fluorochrome", "result": "2–3 fold"}, {"measurement": "Kd", "setting": "[10]; 5 μM Can f 6, Figure 5C, read-out: Kd, one-site fit model of total and non-specific binding", "result": 59.9, "unit": "µM"}, {"measurement": "Kd", "setting": "[10]; 5 μM Can f 6, one-site specific binding, read-out: Fluorochrome dissociation constant Kd", "result": 34.9, "unit": "µM"}, {"measurement": "EC50", "setting": "[10]; 5 μM Can f 6, read-out: EC50 fluorochrome concentration", "result": 20.7, "unit": "µM"}, {"measurement": "Increase of fluorescence intensity upon binding", "setting": "[10]; 5 μM Can f 6 with 5 μM fluorochrome", "result": "2–3 fold"}]}
{"smiles": "CCCCCCCCCCCCCC(=O)O", "note": "[Tetradecanoic acid, tetradecanoic acid]", "values": [{"measurement": "Ki", "setting": "[2]; 5 μM LCN1, fluorochrome 1,8-ANS, read-out: Ligand inhibition constant Ki", "result": 1.8, "unit": "µM"}, {"measurement": "inhibition at 50 µM", "setting": "[2]", "result": 91.9, "unit": "%"}, {"measurement": "Ki", "setting": "[4]; 5 μM Can f 1, fluorochrome 1,8-ANS, read-out: Ligand inhibition constant Ki", "result": 7.4, "unit": "µM"}, {"measurement": "inhibition at 50 µM", "setting": "[4]", "result": 60.8, "unit": "%"}]}
